# Laboratory results published in patent publication US8377903B2, “Cladribine regimen for treating multiple sclerosis” (Merck Serono SA, priority 2004, dated 2013).
# Tests used:
# [1] = system: patients with relapsing forms of clinically definite multiple sclerosis; assay: Oral Cladribine in the treatment of relapsing forms of MS (Example 1 protocol); assay type: in vivo, human
# Text: The efficacy and safety of oral Cladribine administration, eventually multi-dose administration, according to the invention can be assessed for example following the protocol below:
# A study of sixty patients with relapsing forms of clinically definite multiple sclerosis is undertaken. Each patient is first examined for normal hepatic, renal, and bone marrow functioning to establish baseline values.
# Patients are selected from Male or Female, between 18 and 55 years of age who had one or more relapses within the prior 12 months. Female patients are non-pregnant female.
# Each of the patients in Groups 2 and 3 receives 3 mg or 10 mg 2-CdA (1, 2 or 3 administration(s) a day depending on the patient's weight) combined in cyclodextrin formulation as described in WO 2004/087101, Example 3. The Compositions of the Cladribine formulations in 3 mg or 10 mg 2-CdA tablets containing hydroxypropyl-beta-cyclodextrin are listed in Table 2 below:
# In Group 1 patients receive a placebo (saline) for 4 months followed by 8 months of no treatment.
# Patients are monitored to determine whether there is any progression or improvement of brain lesions associated with progression of MS through MRI scans and neurological examination as described in Miller et al., 1996, above; Evans et al., 1997, above; Sipe et al., 1984, above; and Mattson, 2002, above. All patients have a baseline and MRI study (brain or spinal cord, according to localization of the lesions) at month 12.
# The patient's disability progression and the time for having a first relapse are monitored as well as the proportion of relapse-fee patients at 24 months.
# Lymphocyte markers and monocyte counts are monitored in the patients.
# [2] = system: patients with Chronic Progressive MS and Relapsing-Remitting MS; conditions: Phase II; 0.1 mg/kg/day i.v. 7 days x 4 months or 0.07 mg/kg/day s.c. 5 days x 6 months; cited from earlier work
# [3] = system: patients with primary progressive (PP) or secondary progressive (SP) multiple sclerosis; conditions: Phase III; 0.07 mg/kg/day s.c., repeated for 2 or 6 months; cited from earlier work
# [4] = system: patients with multiple sclerosis; conditions: with the highest doses; i.v. or s.c.; cited from earlier work
# [5] = system: patients with remitting-relapsing multiple sclerosis; conditions: 6 monthly courses of 5 days, total dose about 4-5.7 mg/kg, cited from earlier work
# [6] = oral, succession of an induction treatment and maintenance treatments
smiles,measurement,setting,value
"Nc1nc(Cl)nc2c1ncn2[C@H]1C[C@H](O)[C@@H](CO)O1 [Cladribine, 2-chloro-2′ deoxyadenosine]",brain lesions (MRI scans),[1]; Groups 2 and 3: oral 2-CdA total dose 1.75 mg/kg or 3.5 mg/kg,decrease in brain lesions
same,adverse effects,[1]; [6],no severe adverse effect is observed
same,efficacy of regimen on brain lesions,[1]; [6],efficient in decreasing brain lesions
same,"effects on EDSS, SNRS scores and MRI findings",[2],positive effects
same,MRI-measured brain lesions,[3],positive on the significant reduction of MRI-measured brain lesions
same,adverse effects (AEs),[4],increased incidence of infections related to compromised immune function or myelosuppression
same,therapeutic efficacy of oral regimen versus i.v. infusion therapy,[5],questioned
same,side effects versus i.v. infusion study,[5]; oral,less severe
